± gives the expanded uncertainty stated by the source.
Settings: Liquid, Bellows volumetry

`N` [ammonia] showed a mass density (450 K, 30000 kPa) of 355.3 ± 1.7 kg/m3, a mass density (450 K, 40000 kPa) of 403.7 ± 1.9 kg/m3 and a mass density (450 K, 50000 kPa) of 433.4 ± 2.1 kg/m3. It also gave a mass density (450 K, 60000 kPa) of 455.2 ± 2.2 kg/m3, a mass density (450 K, 70000 kPa) of 472.6 ± 2.3 kg/m3 and a mass density (450 K, 80000 kPa) of 487.4 ± 2.3 kg/m3. For the same compound, the mass density (450 K, 90000 kPa) was 500.2 ± 2.4 kg/m3, the mass density (450 K, 100000 kPa) was 511.7 ± 2.5 kg/m3 and the mass density (450 K, 120000 kPa) was 531.4 ± 2.6 kg/m3. For the same compound, the mass density (450 K, 140000 kPa) was 548.2 ± 2.6 kg/m3, the mass density (450 K, 160000 kPa) was 563.1 ± 2.7 kg/m3 and the mass density (450 K, 180000 kPa) was 576.3 ± 2.8 kg/m3. The mass density (450 K, 200000 kPa) was 588.2 ± 2.8 kg/m3, the mass density (500 K, 50000 kPa) was 350.9 ± 1.7 kg/m3 and the mass density (500 K, 60000 kPa) was 384.9 ± 1.8 kg/m3. The mass density (500 K, 70000 kPa) was 410.1 ± 2 kg/m3, the mass density (500 K, 80000 kPa) was 430.2 ± 2.1 kg/m3 and the mass density (500 K, 90000 kPa) was 446.9 ± 2.1 kg/m3. For the same compound, the mass density (500 K, 100000 kPa) was 461.5 ± 2.2 kg/m3, the mass density (500 K, 120000 kPa) was 485.8 ± 2.3 kg/m3 and the mass density (500 K, 140000 kPa) was 505.9 ± 2.4 kg/m3. It also gave a mass density (500 K, 160000 kPa) of 523.1 ± 2.5 kg/m3, a mass density (500 K, 180000 kPa) of 538.3 ± 2.6 kg/m3 and a mass density (500 K, 200000 kPa) of 551.9 ± 2.6 kg/m3.
